Laboratory results published in PubChem BioAssay (NCI).
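Grown in 96-well plates, cells were treated for 48 hours with each compound at five concentrations. Insufficient inhibition: endpoint recorded as highest concentration tested. GI50: concentration for 50% inhibition of growth. TGI denotes the concentration required for complete inhibition of growth.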

Legend:
Assay in all cases: NCI anticancer screen, dose series, 48 h
HL-60(TB) leukemia = test system: HL-60(TB) leukemia
HS 578T breast = test system: HS 578T breast
COLO 205 colon = test system: COLO 205 colon
NCI-H522 lung = test system: NCI-H522 lung
SK-MEL-5 melanoma = test system: SK-MEL-5 melanoma
IGROV1 ovarian = test system: IGROV1 ovarian
RXF 393 renal = test system: RXF 393 renal
SNB-19 CNS = test system: SNB-19 CNS
M14 melanoma = test system: M14 melanoma
CAKI-1 renal = test system: CAKI-1 renal
TK-10 renal = test system: TK-10 renal
UACC-62 melanoma = test system: UACC-62 melanoma
MALME-3M melanoma = test system: MALME-3M melanoma
PC-3 prostate = test system: PC-3 prostate
LOX IMVI melanoma = test system: LOX IMVI melanoma
NCI/ADR-RES ovarian = test system: NCI/ADR-RES ovarian
DU-145 prostate = test system: DU-145 prostate
HCC-2998 colon = test system: HCC-2998 colon
A549 NSCLC = test system: A549 NSCLC
T-47D breast = test system: T-47D breast
HT29 colon = test system: HT29 colon
MCF7 breast = test system: MCF7 breast
BT-549 breast = test system: BT-549 breast
SR leukemia = test system: SR leukemia
UO-31 renal = test system: UO-31 renal
OVCAR-5 ovarian = test system: OVCAR-5 ovarian
KM12 colon = test system: KM12 colon
NCI-H460 lung = test system: NCI-H460 lung
UACC-257 melanoma = test system: UACC-257 melanoma

Cc1ccc(NC(=O)Cn2c(Br)nc3c2c(=O)n(C)c(=O)n3C)cc1 was tested, and the GI50 (HL-60(TB) leukemia) was > 100 µM, the TGI (HL-60(TB) leukemia) was > 100 µM and the GI50 (HS 578T breast) was 3.43 µM. For the same compound, the TGI (HS 578T breast) was 14.9 µM, the GI50 (COLO 205 colon) was 5.57 µM and the TGI (COLO 205 colon) was 19.3 µM. It also gave a GI50 (NCI-H522 lung) of 9.27 µM, a TGI (NCI-H522 lung) of 36.3 µM and a GI50 (SK-MEL-5 melanoma) of 2.31 µM. It also gave a TGI (SK-MEL-5 melanoma) of 5.57 µM, a GI50 (IGROV1 ovarian) of 5 µM and a TGI (IGROV1 ovarian) of 17.4 µM. For the same compound, the GI50 (RXF 393 renal) was 2.29 µM, the TGI (RXF 393 renal) was 6.28 µM and the GI50 (SNB-19 CNS) was 7.92 µM. For the same compound, the TGI (SNB-19 CNS) was 23.7 µM, the GI50 (M14 melanoma) was 5.98 µM and the TGI (M14 melanoma) was 19.2 µM. It also gave a GI50 (CAKI-1 renal) of 4.32 µM, a TGI (CAKI-1 renal) of 16.3 µM and a GI50 (TK-10 renal) of 3.2 µM. The TGI (TK-10 renal) was 9.93 µM, the GI50 (UACC-62 melanoma) was 11.1 µM and the TGI (UACC-62 melanoma) was 24.2 µM. For the same compound, the GI50 (MALME-3M melanoma) was 2.33 µM, the TGI (MALME-3M melanoma) was 7.01 µM and the GI50 (PC-3 prostate) was 11.5 µM. It also gave a TGI (PC-3 prostate) of 24.1 µM, a GI50 (LOX IMVI melanoma) of 6.27 µM and a TGI (LOX IMVI melanoma) of 19.4 µM. It also gave a GI50 (NCI/ADR-RES ovarian) of 9.75 µM, a TGI (NCI/ADR-RES ovarian) of 29.3 µM and a GI50 (DU-145 prostate) of 4.64 µM. The TGI (DU-145 prostate) was 16.4 µM, the GI50 (HCC-2998 colon) was 15.5 µM and the TGI (HCC-2998 colon) was 28.9 µM. The GI50 (A549 NSCLC) was 5.61 µM, the TGI (A549 NSCLC) was 24.5 µM and the GI50 (T-47D breast) was 3.05 µM. It also gave a TGI (T-47D breast) of 14 µM, a GI50 (HT29 colon) of 13.8 µM and a TGI (HT29 colon) of 51.5 µM. The GI50 (MCF7 breast) was 3.91 µM, the TGI (MCF7 breast) was 18.3 µM and the GI50 (BT-549 breast) was 11.1 µM. For the same compound, the TGI (BT-549 breast) was 24 µM, the GI50 (SR leukemia) was 8.96 µM and the TGI (SR leukemia) was 35.5 µM. For the same compound, the GI50 (UO-31 renal) was 2.13 µM, the TGI (UO-31 renal) was 6 µM and the GI50 (OVCAR-5 ovarian) was 3.69 µM. It also gave a TGI (OVCAR-5 ovarian) of 13.9 µM, a GI50 (KM12 colon) of 13.6 µM and a TGI (KM12 colon) of 29.9 µM. For the same compound, the GI50 (NCI-H460 lung) was 3.39 µM, the TGI (NCI-H460 lung) was 11.6 µM and the GI50 (UACC-257 melanoma) was 13.9 µM. For the same compound, the TGI (UACC-257 melanoma) was 28.8 µM.
